Measurements: patent US10870647B2, “Imidazopyridine derivative, method for preparing same, and pharmaceutical composition containing same as active ingredient for preventing or treating cancer” (DAEGU-GYEONGBUK MEDICAL INNOVATION FOUNDATION, priority 2016, dated 2020)

Tests used:
MDA-MB-231 = assay: Real time cell proliferation, IncuCyte ZOOM, 72 hours; type: cell-based; conditions: Homo sapiens, MDA-MB-231, 72 h
A375 = assay: Cancer cell proliferation inhibition, CCK-8, 72 hours; type: cell-based; conditions: Homo sapiens, A-375, 72 h
In short: (§1)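 A375 cells (2×10^3/well) attached overnight, then received 9 three-fold dilutions (0.0015-10 μM). K562 and Ba/F3-T315I (1×10^4/well) were given 9-point series (3-fold and 5-fold respectively), final 0-10 μM. After 72 h at 37°C, CCK-8 was added for 2 h; blank-subtracted OD450 gave IC50.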

T315I (Ba/F3) = molecular target: T1, T315I (Ba/F3) (Homo sapiens, UniProt P00519, T315I, cells depend on it); assay: as above; type: cell-based; conditions: read-out: T315I (Ba/F3) IC50
T1 construct: fused on or other part: P11274 (Breakpoint cluster region protein)
In short: as §1

K562 = assay: as above; type: cell-based; conditions: Homo sapiens, K562, 72 h
In short: as §1

[1] = molecular target: T2, scanMAX Kinase assay panel (Homo sapiens, UniProt O15075); assay: Kinase selectivity, scanMAX Kinase assay panel (DiscoverX), % control at 1 uM; type: binding; conditions: DCAMKL1; 1 uM; read-out: Percent Control (%)
T2 construct: purchased DiscoverX
T2 sequence (O15075 whole entry): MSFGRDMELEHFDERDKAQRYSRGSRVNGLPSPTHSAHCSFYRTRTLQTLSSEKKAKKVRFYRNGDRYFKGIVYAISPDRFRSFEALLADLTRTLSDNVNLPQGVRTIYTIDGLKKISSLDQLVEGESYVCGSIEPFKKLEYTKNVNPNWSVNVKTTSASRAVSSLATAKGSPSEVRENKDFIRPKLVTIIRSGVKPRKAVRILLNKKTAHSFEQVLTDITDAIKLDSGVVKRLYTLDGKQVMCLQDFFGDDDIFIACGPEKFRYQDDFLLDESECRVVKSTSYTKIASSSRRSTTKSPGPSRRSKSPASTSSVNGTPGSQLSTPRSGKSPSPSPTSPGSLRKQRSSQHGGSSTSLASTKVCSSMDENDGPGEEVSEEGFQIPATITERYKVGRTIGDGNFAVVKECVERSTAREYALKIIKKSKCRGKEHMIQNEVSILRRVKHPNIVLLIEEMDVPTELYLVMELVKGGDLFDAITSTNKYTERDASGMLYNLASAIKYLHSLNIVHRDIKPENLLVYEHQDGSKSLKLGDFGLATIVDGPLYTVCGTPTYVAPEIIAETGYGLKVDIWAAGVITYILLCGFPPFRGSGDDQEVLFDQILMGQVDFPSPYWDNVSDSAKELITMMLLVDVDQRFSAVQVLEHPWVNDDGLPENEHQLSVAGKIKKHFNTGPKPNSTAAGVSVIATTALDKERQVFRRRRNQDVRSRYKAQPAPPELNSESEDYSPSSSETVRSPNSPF
In short: (§2)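 Read-out is percent of control, derived from the signal with compound relative to positive and negative controls: (compound − positive)/(negative − positive) × 100. Each enzyme received test drug at 1 uM in DMSO, and values under 35% count as active.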

[2] = molecular target: T3, scanMAX Kinase assay panel (Homo sapiens, UniProt O00141); assay: as above; type: binding; conditions: SGK; 1 uM; read-out: Percent Control (%)
T3 construct: purchased DiscoverX
T3 sequence (O00141 1-431): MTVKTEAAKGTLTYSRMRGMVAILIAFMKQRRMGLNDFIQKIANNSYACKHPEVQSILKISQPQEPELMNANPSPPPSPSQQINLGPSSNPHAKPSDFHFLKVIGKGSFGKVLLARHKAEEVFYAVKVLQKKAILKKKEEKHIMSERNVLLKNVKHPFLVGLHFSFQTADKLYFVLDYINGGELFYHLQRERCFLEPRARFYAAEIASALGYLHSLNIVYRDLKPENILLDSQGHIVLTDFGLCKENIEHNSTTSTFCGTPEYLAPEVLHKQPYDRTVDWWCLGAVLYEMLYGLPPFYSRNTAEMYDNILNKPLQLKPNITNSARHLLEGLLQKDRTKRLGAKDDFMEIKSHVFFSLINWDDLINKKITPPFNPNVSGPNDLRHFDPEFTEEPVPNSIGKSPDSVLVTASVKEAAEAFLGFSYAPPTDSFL
In short: as §2

GIST430/654 = assay: Cancer cell proliferation inhibition, cell viability after 72 hours; type: cell-based; conditions: GIST-430/654, imatinib-resistant
In short: (§3)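 GIST-T1/816, GIST-430 and GIST-430/654 seeded at 2×10^4/100 μl; GIST-R3 (patient-derived, imatinib/sunitinib-resistant) likewise. Compounds added next day at 8 concentrations; viability after 72 hours by EZ-cytox or CellTiter-Glo, as % of vehicle-treated cells, IC50 from curves; two independent experiments.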

GIST-T1 = assay: as above; type: cell-based; conditions: Homo sapiens, GISTT1, imatinib-sensitive
GIST430 = assay: as above; type: cell-based; conditions: Homo sapiens, imatinib-sensitive
In short: as §3

GIST-T1/816 = assay: as above; type: cell-based; conditions: Homo sapiens, GISTT1, imatinib-resistant
In short: as §3

SMILES	IC50 (MDA-MB-231) [nM]	IC50 (A375) [nM]	GI50 (T315I (Ba/F3)) [nM]	IC50 (K562) [nM]	remaining binding at 1 µM [1] [%]	remaining binding at 1 µM [2] [%]	IC50 (GIST430/654) [nM]	IC50 (GIST-T1) [nM]	IC50 (GIST430) [nM]	IC50 (GIST-T1/816) [nM]
Cc1ccc(C(=O)Nc2ccc(CN3CCN(C)CC3)c(C(F)(F)F)c2)cc1C#Cc1cnc2c(Nc3cnn(C)c3)cccn12 [Example 1, 4-methyl-3-((8-((1-methyl-1H-pyrazol-4-yl)amino)imidazo[1,2-a]pyridin-3-yl)ethynyl)-N-(4-((4-methylpiperazin-1-yl)methyl)-3-(trifluoromethyl)phenyl)benzamide]	187	26	26	< 1	54	93	332	1.9	36.8	35.4
CCN1CCN(Cc2ccc(NC(=O)c3ccc(C)c(C#Cc4cnc5c(Nc6cnn(C)c6)cccn45)c3)cc2C(F)(F)F)CC1 [Example 8, N-(4-((4-ethylpiperazin-1-yl)methyl)-3-(trifluoromethyl)phenyl)-4-methyl-3-((8-((1-methyl-1H-pyrazol-4-yl)amino)imidazo[1,2-a]pyridin-3-yl)ethynyl)benzamide]	96	52	32	< 1	–	–	–	–	–	–
Cc1ccc(C(=O)Nc2cccc(C(F)(F)F)c2)cc1C#Cc1cnc2c(Nc3cnn(C4CCNCC4)c3)cccn12 [Example 11, 4-methyl-3-((8-((1-(piperidin-4-yl)-1H-pyrazol-4-yl)amino)imidazo[1,2-a]pyridin-3-yl)ethynyl)-N-(3-(trifluoromethyl)phenyl)benzamide]	679	1250	6.34	< 1	–	–	560	0.8	63.6	40.7
Cc1cn(-c2cc(NC(=O)c3ccc(C)c(C#Cc4cnc5c(Nc6cnn(C)c6)cccn45)c3)cc(C(F)(F)F)c2)cn1 [Example 12, 4-methyl-N-(3-(4-methyl-1H-imidazol-1-yl)-5-(trifluoromethyl)phenyl)-3-((8-((1-methyl-1H-pyrazol-4-yl)amino)imidazo[1,2-a]pyridin-3-yl)ethynyl)benzamide]	1190	942	6.72	< 1	91	100	564	12.3	56.3	308
Cc1ccc(NC(=O)C2(C(=O)Nc3ccc(F)cc3)CC2)cc1C#Cc1cnc2c(Nc3cnn(C(C)C)c3)cccn12 [Example 78]	8780	4600	3240	1200	95	96	–	–	–	–
